Source: ChEMBL document CHEMBL5321210, “N-adamantyl-anthranil amide derivatives: New selective ligands for the cannabinoid receptor subtype 2 (CB2R)” (Eur J Med Chem, 2023)
Calls of active or inactive are those of the source.

Tests used:
THP-1 [1] = test: Antiinflammatory activity against LPS-activated PMA-differentiated human THP-1 monocytes assessed as decrease in IL-1beta production at 10 uM incubated for 24 hrs in the presence of N-(adamantan-1-yl)-4-(pentylamino)-[1,1'-biphenyl]-3-carboxamide by ELISA coupled qRT-PCR analysis; assay type: functional, cell-based
THP-1 [2] = test: Antiinflammatory activity against LPS-activated PMA-differentiated human THP-1 monocytes assessed as decrease in IL-6 production at 10 uM incubated for 24 hrs in the presence of N-(adamantan-1-yl)-4-(pentylamino)-[1,1'-biphenyl]-3-carboxamide by ELISA coupled qRT-PCR analysis; assay type: functional, cell-based
THP-1 [3] = test: Antiinflammatory activity in PMA-differentiated human THP-1 macrophages assessed as decrease in IL-6 production at 10 uM incubated for 24 hrs in the presence of JTE907 by ELISA coupled qRT-PCR analysis; assay type: functional, cell-based
THP-1 [4] = test: Antiinflammatory activity in human THP-1 monocytes assessed as increase in IL-10 production at 10 uM incubated for 24 hrs in the presence of JTE907 by ELISA coupled qRT-PCR analysis; assay type: functional, cell-based
THP-1 [5] = test: Antiinflammatory activity in PMA-differentiated human THP-1 macrophages assessed as reduction in IL-1beta production at 10 uM incubated for 24 hrs by ELISA coupled qRT-PCR analysis relative to control; assay type: functional; parameters: scale not given: the % may be the effect or the level left
THP-1 [6] = test: Antiinflammatory activity in human THP-1 monocytes assessed as decrease in IL-6 production at 10 uM incubated for 24 hrs in the presence of N-(adamantan-1-yl)-4-(pentylamino)-[1,1'-biphenyl]-3-carboxamide by ELISA coupled qRT-PCR analysis; assay type: functional, cell-based
THP-1 [7] = test: Antiinflammatory activity against LPS-activated human THP-1 monocytes assessed as decrease in IFN-gamma production at 10 uM incubated for 24 hrs in the presence of N-(adamantan-1-yl)-4-(pentylamino)-[1,1'-biphenyl]-3-carboxamide by ELISA coupled qRT-PCR analysis; assay type: functional, cell-based
THP-1 [8] = test: Antiinflammatory activity in LPS-activated PMA-differentiated human THP-1 macrophages assessed as decrease in TNF-alpha production at 10 uM incubated for 24 hrs in the presence of JTE907 by ELISA coupled qRT-PCR analysis; assay type: functional, cell-based
THP-1 [9] = test: Antiinflammatory activity in human THP-1 monocytes assessed as decrease in TNF-alpha production at 10 uM incubated for 24 hrs in the presence of JTE907 by ELISA coupled qRT-PCR analysis; assay type: functional, cell-based
THP-1 [10] = test: Antiinflammatory activity in human THP-1 monocytes assessed as decrease in IL-6 production at 10 uM incubated for 24 hrs in the presence of JTE907 by ELISA coupled qRT-PCR analysis; assay type: functional, cell-based
THP-1 [11] = test: Antiinflammatory against LPS-activated human THP-1 monocytes assessed as decrease in IFN-gamma production at 10 uM incubated for 24 hrs in the presence of JTE907 by ELISA coupled qRT-PCR analysis; assay type: functional, cell-based
THP-1 [12] = test: Antiinflammatory activity against LPS-activated human THP-1 monocytes assessed as decrease in IL-6 production at 10 uM incubated for 24 hrs in the presence of N-(adamantan-1-yl)-4-(pentylamino)-[1,1'-biphenyl]-3-carboxamide by ELISA coupled qRT-PCR analysis; assay type: functional, cell-based
THP-1 [13] = test: Antiinflammatory activity in LPS-activated PMA-differentiated human THP-1 macrophages assessed as increase in IL-4 production at 10 uM incubated for 24 hrs in the presence of JTE907 by ELISA coupled qRT-PCR analysis; assay type: functional, cell-based
THP-1 [14] = test: Antiinflammatory activity against LPS-activated PMA-differentiated human THP-1 macrophages assessed as decrease in TNF-alpha production at 10 uM incubated for 24 hrs by ELISA coupled qRT-PCR analysis relative to control; assay type: functional; parameters: scale not given: the % may be the effect or the level left
THP-1 [15] = test: Antiinflammatory against LPS-activated human THP-1 monocytes assessed as increase in IL-10 production at 10 uM incubated for 24 hrs in the presence of JTE907 by ELISA coupled qRT-PCR analysis; assay type: functional, cell-based
THP-1 [16] = test: Antiinflammatory activity in PMA-differentiated human THP-1 macrophages assessed as increase in IL-10 production at 1 to 10 uM incubated for 24 hrs in the presence of JTE907 by ELISA coupled qRT-PCR analysis; assay type: functional, cell-based; conditions: dose 1-10 µM
THP-1 [17] = test: Antiinflammatory activity in human THP-1 monocytes assessed as decrease in IL-6 production at 1 to 10 uM incubated for 24 hrs in the presence of JTE907 by ELISA coupled qRT-PCR analysis; assay type: functional, cell-based; conditions: dose 1-10 µM
THP-1 [18] = test: Antiinflammatory activity in PMA-differentiated human THP-1 macrophages assessed as reduction in TNF-alpha production at 1 to 10 uM incubated for 24 hrs by ELISA coupled qRT-PCR analysis relative to control; assay type: functional; parameters: scale not given: the % may be the effect or the level left; conditions: dose 1-10 µM
THP-1 [19] = test: Antiinflammatory activity in LPS-activated PMA-differentiated human THP-1 macrophages assessed as increase in IL-4 production at 1 to 10 uM incubated for 24 hrs in the presence of JTE907 by ELISA coupled qRT-PCR analysis; assay type: functional, cell-based; conditions: dose 1-10 µM
THP-1 [20] = test: Antiinflammatory activity in PMA-differentiated human THP-1 macrophages assessed as decrease in IL-6 production at 1 to 10 uM incubated for 24 hrs in the presence of JTE907 by ELISA coupled qRT-PCR analysis; assay type: functional, cell-based; conditions: dose 1-10 µM
THP-1 [21] = test: Antiinflammatory against LPS-activated human THP-1 monocytes assessed as decrease in TNF-alpha production at 1 to 10 uM incubated for 24 hrs in the presence of JTE907 by ELISA coupled qRT-PCR analysis; assay type: functional, cell-based; conditions: dose 1-10 µM
THP-1 [22] = test: Antiinflammatory against LPS-activated human THP-1 monocytes assessed as decrease in IL-1beta production at 1 to 10 uM incubated for 24 hrs in the presence of JTE907 by ELISA coupled qRT-PCR analysis; assay type: functional, cell-based; conditions: dose 1-10 µM
THP-1 [23] = test: Antiinflammatory activity against LPS-activated PMA-differentiated human THP-1 macrophages assessed as decrease in IL-1beta production at 1 to 10 uM incubated for 24 hrs by ELISA coupled qRT-PCR analysis relative to control; assay type: functional; parameters: scale not given: the % may be the effect or the level left; conditions: dose 1-10 µM
THP-1 [24] = test: Antiinflammatory activity in human THP-1 monocytes assessed as decrease in IL-6 production incubated for 24 hrs by ELISA coupled qRT-PCR analysis; assay type: functional, cell-based; conditions: dose 1-10 µM
THP-1 [25] = test: Antiinflammatory activity in PMA-differentiated human THP-1 macrophages assessed as reduction in IL-6 production at 1 to 10 uM incubated for 24 hrs by ELISA coupled qRT-PCR analysis relative to control; assay type: functional; parameters: scale not given: the % may be the effect or the level left; conditions: dose 1-10 µM
THP-1 [26] = test: Antiinflammatory activity against LPS-activated PMA-differentiated human THP-1 macrophages assessed as decrease in IFN-gamma production at 1 to 10 uM incubated for 24 hrs by ELISA coupled qRT-PCR analysis relative to control; assay type: functional; parameters: scale not given: the % may be the effect or the level left; conditions: dose 1-10 µM
THP-1 [27] = test: Antiinflammatory activity in PMA-differentiated human THP-1 macrophages assessed as reduction in IL-1beta production at 1 to 10 uM incubated for 24 hrs by ELISA coupled qRT-PCR analysis relative to control; assay type: functional; parameters: scale not given: the % may be the effect or the level left; conditions: dose 1-10 µM
THP-1 [28] = test: Antiinflammatory activity in human THP-1 monocytes assessed as decrease in IL-1beta production incubated for 24 hrs by ELISA coupled qRT-PCR analysis; assay type: functional, cell-based; conditions: dose 1-10 µM

Measured: Activity

O=C(NC1CCCCC1)c1cn(CCN2CCOCC2)c2cc(Cl)ccc2c1=O
50%: THP-1 [5]
70%: THP-1 [14]
inactive: THP-1 [1] | THP-1 [2] | THP-1 [3] | THP-1 [4] | THP-1 [6] | THP-1 [7] | THP-1 [8] | THP-1 [9] | THP-1 [10] | THP-1 [11] | THP-1 [12] | THP-1 [13] | THP-1 [15]

CCCCCNc1ccccc1C(=O)NC12CC3CC(CC(C3)C1)C2
inactive: THP-1 [16] | THP-1 [17] | THP-1 [19] | THP-1 [20] | THP-1 [21] | THP-1 [22]
active: THP-1 [24] Dose-Dependent Effect | THP-1 [28] Dose-Dependent Effect
50%: THP-1 [18] | THP-1 [25] | THP-1 [27]
70%: THP-1 [23] | THP-1 [26]
